Converted amounts (≈) assume the structure as drawn. The source made the active and inactive calls. No cut-off for these calls is given here.
How the values were obtained:
[1] = tested on: Staphylococcus aureus; assay: Antibacterial activity against Staphylococcus aureus ATCC 29213 assessed as inhibition of visible growth incubated for 18 hrs by CLSI protocol based microbroth dilution method; type: functional
[2] = tested on: Staphylococcus epidermidis; assay: Antibacterial activity against methicillin-susceptible Staphylococcus epidermidis clinical isolate CANWARD-2008 81388 assessed as inhibition of visible growth incubated for 18 hrs by CLSI protocol based microbroth dilution method; type: functional
[3] = tested on: Streptococcus pneumoniae; assay: Antibacterial activity against Streptococcus pneumoniae ATCC 49619 assessed as inhibition of visible growth incubated for 18 hrs by CLSI protocol based microbroth dilution method; type: functional
[4] = tested on: Escherichia coli; assay: Antibacterial activity against Escherichia coli ATCC 25922 assessed as inhibition of visible growth incubated for 18 hrs by CLSI protocol based microbroth dilution method; type: functional
[5] = tested on: Acinetobacter baumannii; assay: Antibacterial activity against Acinetobacter baumannii clinical isolate CAN-ICU 63169 assessed as inhibition of visible growth incubated for 18 hrs by CLSI protocol based microbroth dilution method; type: functional
[6] = tested on: Pseudomonas aeruginosa; assay: Potentiation of ciprofloxacin-induced antibacterial activity against wild type Pseudomonas aeruginosa PAO1 assessed as ciprofloxacin MIC measured after 18 hrs by CLSI protocol based microbroth dilution method (reference value: 0.125 ug/ml); type: functional
[7] = tested on: Pseudomonas aeruginosa; assay: Synergistic antibacterial activity against wild type Pseudomonas aeruginosa PAO1 assessed as fractional inhibitory concentration index in presence of levofloxacin by Checkerboard assay; type: functional
[8] = tested on: Pseudomonas aeruginosa; assay: Potentiation of levofloxacin-induced antibacterial activity against wild type Pseudomonas aeruginosa PAO1 assessed as […] measured after 18 hrs by CLSI protocol based microbroth dilution method relative to levofloxacin MIC; type: functional
[9] = tested on: Pseudomonas aeruginosa; assay: Additive antibacterial activity against MexAB-OprM efflux pump deficient Pseudomonas aeruginosa PAO200 in presence of ciprofloxacin by Checkerboard assay; type: functional, organism-based
[10] = tested on: Pseudomonas aeruginosa; assay: Additive antibacterial activity against MexAB-OprM efflux pump deficient Pseudomonas aeruginosa PAO200 in presence of levofloxacin by Checkerboard assay; type: functional, organism-based
[11] = tested on: Pseudomonas aeruginosa; assay: Additive antibacterial activity against MexAB-OprM, MexCD-OprJ, MexEF-OprN, MexJK and MexXY efflux pumps deficient Pseudomonas aeruginosa PAO750 in presence of ciprofloxacin by Checkerboard assay; type: functional, organism-based
[12] = tested on: Pseudomonas aeruginosa; assay: Additive antibacterial activity against MexAB-OprM, MexCD-OprJ, MexEF-OprN, MexJK and MexXY efflux pumps deficient Pseudomonas aeruginosa PAO750 in presence of moxifloxacin by Checkerboard assay; type: functional, organism-based
[13] = tested on: Pseudomonas aeruginosa; assay: Synergistic antibacterial activity against wild type Pseudomonas aeruginosa PAO1 in presence of ciprofloxacin by Checkerboard assay; type: functional, organism-based
[14] = tested on: Pseudomonas aeruginosa; assay: Synergistic antibacterial activity against multidrug resistant Pseudomonas aeruginosa PA259 in presence of ciprofloxacin by Checkerboard assay; type: functional, organism-based
[15] = tested on: Pseudomonas aeruginosa; assay: Synergistic antibacterial activity against multidrug resistant Pseudomonas aeruginosa PA259 in presence of moxifloxacin by Checkerboard assay; type: functional, organism-based
[16] = tested on: Pseudomonas aeruginosa; assay: Synergistic antibacterial activity against multidrug resistant Pseudomonas aeruginosa PA260 in presence of ciprofloxacin by Checkerboard assay; type: functional, organism-based
[17] = tested on: Pseudomonas aeruginosa; assay: Synergistic antibacterial activity against multidrug resistant Pseudomonas aeruginosa PA260 in presence of levofloxacin by Checkerboard assay; type: functional, organism-based
[18] = tested on: Pseudomonas aeruginosa; assay: Synergistic antibacterial activity against multidrug resistant Pseudomonas aeruginosa PA260 in presence of moxifloxacin by Checkerboard assay; type: functional, organism-based
[19] = tested on: Pseudomonas aeruginosa; assay: Synergistic antibacterial activity against multidrug resistant Pseudomonas aeruginosa PA262 in presence of ciprofloxacin by Checkerboard assay; type: functional, organism-based
[20] = tested on: Pseudomonas aeruginosa; assay: Synergistic antibacterial activity against multidrug resistant Pseudomonas aeruginosa PA262 in presence of levofloxacin by Checkerboard assay; type: functional, organism-based
[21] = tested on: Pseudomonas aeruginosa; assay: Synergistic antibacterial activity against multidrug resistant Pseudomonas aeruginosa PA262 in presence of moxifloxacin by Checkerboard assay; type: functional, organism-based
[22] = tested on: Pseudomonas aeruginosa; assay: Synergistic antibacterial activity against multidrug resistant Pseudomonas aeruginosa PA264 in presence of ciprofloxacin by Checkerboard assay; type: functional, organism-based
[23] = tested on: Pseudomonas aeruginosa; assay: Synergistic antibacterial activity against multidrug resistant Pseudomonas aeruginosa PA264 in presence of levofloxacin by Checkerboard assay; type: functional, organism-based
[24] = tested on: Pseudomonas aeruginosa; assay: Synergistic antibacterial activity against multidrug resistant Pseudomonas aeruginosa PA264 in presence of moxifloxacin by Checkerboard assay; type: functional, organism-based
[25] = tested on: Pseudomonas aeruginosa; assay: Synergistic antibacterial activity against multidrug resistant Pseudomonas aeruginosa PA100036 in presence of ciprofloxacin by Checkerboard assay; type: functional, organism-based
[26] = tested on: Pseudomonas aeruginosa; assay: Synergistic antibacterial activity against multidrug resistant Pseudomonas aeruginosa PA100036 in presence of moxifloxacin by Checkerboard assay; type: functional, organism-based
[27] = tested on: Pseudomonas aeruginosa; assay: Synergistic antibacterial activity against multidrug resistant Pseudomonas aeruginosa PA101885 in presence of ciprofloxacin by Checkerboard assay; type: functional, organism-based
[28] = tested on: Escherichia coli; assay: Additive antibacterial activity against Escherichia coli 94393 in presence of ciprofloxacin by Checkerboard assay; type: functional, organism-based
[29] = tested on: Escherichia coli; assay: Synergistic antibacterial activity against Escherichia coli ATCC 25922 in presence of levofloxacin by Checkerboard assay; type: functional, organism-based
[30] = tested on: Escherichia coli; assay: Synergistic antibacterial activity against Escherichia coli ATCC 25922 in presence of moxifloxacin by Checkerboard assay; type: functional, organism-based
[31] = tested on: Escherichia coli; assay: Synergistic antibacterial activity against Escherichia coli 107115 in presence of moxifloxacin by Checkerboard assay; type: functional, organism-based
[32] = tested on: Escherichia coli; assay: Synergistic antibacterial activity against Escherichia coli 94393 in presence of moxifloxacin by Checkerboard assay; type: functional, organism-based
[33] = tested on: Klebsiella pneumoniae; assay: Synergistic antibacterial activity against Klebsiella pneumoniae 116381 in presence of ciprofloxacin by Checkerboard assay; type: functional, organism-based
[34] = tested on: Klebsiella pneumoniae; assay: Synergistic antibacterial activity against Klebsiella pneumoniae 116381 in presence of levofloxacin by Checkerboard assay; type: functional, organism-based
[35] = tested on: Acinetobacter baumannii; assay: Synergistic antibacterial activity against Acinetobacter baumannii ATCC 17978 in presence of ciprofloxacin by Checkerboard assay; type: functional, organism-based
[36] = tested on: Acinetobacter baumannii; assay: Synergistic antibacterial activity against Acinetobacter baumannii ATCC 17978 in presence of levofloxacin by Checkerboard assay; type: functional, organism-based
[37] = tested on: Acinetobacter baumannii; assay: Synergistic antibacterial activity against Acinetobacter baumannii ATCC 17978 in presence of moxifloxacin by Checkerboard assay; type: functional, organism-based
[38] = tested on: Acinetobacter baumannii; assay: Synergistic antibacterial activity against multidrug resistant Acinetobacter baumannii AB027 assessed as fractional inhibitory concentration index in presence of ciprofloxacin by Checkerboard assay; type: functional
[39] = tested on: Pseudomonas aeruginosa; assay: Potentiation of chloramphenicol-induced antibacterial activity against wild type Pseudomonas aeruginosa PAO1 measured after 18 hrs by CLSI protocol based microbroth dilution method; type: functional, organism-based
[40] = tested on: Pseudomonas aeruginosa; assay: Potentiation of pleuromutilin-induced antibacterial activity against wild type Pseudomonas aeruginosa PAO1 measured after 18 hrs by CLSI protocol based microbroth dilution method; type: functional, organism-based
[41] = tested on: Pseudomonas aeruginosa; assay: Potentiation of ceftazidime-induced antibacterial activity against wild type Pseudomonas aeruginosa PAO1 measured after 18 hrs by CLSI protocol based microbroth dilution method; type: functional, organism-based
[42] = tested on: Pseudomonas aeruginosa; assay: Potentiation of minocycline-induced antibacterial activity against wild type Pseudomonas aeruginosa PAO1 measured after 18 hrs by CLSI protocol based microbroth dilution method; type: functional, organism-based
[43] = tested on: Pseudomonas aeruginosa; assay: Potentiation of aztreonam-induced antibacterial activity against wild type Pseudomonas aeruginosa PAO1 measured after 18 hrs by CLSI protocol based microbroth dilution method; type: functional, organism-based
[44] = tested on: Pseudomonas aeruginosa; assay: Potentiation of rifampicin-induced antibacterial activity against wild type Pseudomonas aeruginosa PAO1 measured after 18 hrs by CLSI protocol based microbroth dilution method; type: functional, organism-based
[45] = tested on: Pseudomonas aeruginosa; assay: Potentiation of vancomycin-induced antibacterial activity against wild type Pseudomonas aeruginosa PAO1 measured after 18 hrs by CLSI protocol based microbroth dilution method; type: functional, organism-based

`C[C@H]1COc2c(N3CCN(C)CC3)c(F)cc3c(=O)c(C(=O)NCCCCCCCCCCCC(=O)N[C@@H](CCN)C(=O)N[C@@H](CCN)C(N)=O)cn1c23` was tested, and the MIC [1] was 128 µg/mL (≈ 169 µM), the MIC [2] was 64 µg/mL (≈ 84.4 µM) and the MIC [3] was > 128 µg/mL. The MIC [4] was 64 µg/mL (≈ 84.4 µM), the MIC [5] was > 128 µg/mL and the MIC [6] was 0.031 µg/mL. For the same compound, the “fractional inhibitory concentration index (FICI)” value [7] was 0.5, the Ratio [8] was 4 and the Activity [9] was “Active”. For the same compound, the Activity [10] was “Active”, the Activity [11] was “Active” and the Activity [12] was “Active”. The Activity [13] was “Active”, the Activity [14] was “Active” and the Activity [15] was “Active”. The Activity [16] was “Active”, the Activity [17] was “Active” and the Activity [18] was “Active”. The Activity [19] was “Active”, the Activity [20] was “Active” and the Activity [21] was “Active”. For the same compound, the Activity [22] was “Active”, the Activity [23] was “Active” and the Activity [24] was “Active”. For the same compound, the Activity [25] was “Active”, the Activity [26] was “Active” and the Activity [27] was “Active”. The Activity [28] was “Active”, the Activity [29] was “Active” and the Activity [30] was “Active”. The Activity [31] was “Active”, the Activity [32] was “Active” and the Activity [33] was “Active”. For the same compound, the Activity [34] was “Active”, the Activity [35] was “inactive” and the Activity [36] was “inactive”. The Activity [37] was “inactive”, the “fractional inhibitory concentration index (FICI)” value [38] was 0.37 and the Activity [39] was “Active”. The Activity [40] was “Active”, the Activity [41] was “Active” and the Activity [42] was “Active”. The Activity [43] was “inactive”, the Activity [44] was “Active” and the Activity [45] was “Active”.

Reference: ChEMBL document CHEMBL4680060, “Polybasic peptide-levofloxacin conjugates potentiate fluoroquinolones and other classes of antibiotics against multidrug-resistant Gram-negative bacteria” (Medchemcomm, 2019)
